Source: patent US20250312469A1 (CANGET BIOTEKPHARMA, priority 2024, published 2025)

What was measured:
[1] = tested on: CYP1A2 mRNA; test: CYP induction (mRNA) in fresh human hepatocytes
Description: (§1) (2) CYP positive inducers (Table 58a) and Williams' Medium E (WME) were purchased from Sigma-Aldrich (St. Louis, MO, USA). Dulbecco's phosphate-buffered saline (DPBS, pH 7.4) was purchased from Invitrogen (Carlsbad, CA, USA). Hepatocyte culture medium (serum-free) for CYP induction was purchased from XenoTech (catalog #K2300, Lenexa, KS, USA). The CellTiter 96 AQueous ONE Solution Cell Proliferation Assay was obtained from Promega (Madison, WI, USA). All other chemicals and reagents were of analytical grade or higher. (3) Fresh human hepatocytes (Table 58b) seeded at ˜0.15 million cells/well in 48-well plates (˜0.75 million cells/mL) were purchased from Thermo Fisher Scientific (Grand Island, NY, USA) and BioreclamationIVT (Baltimore, MD, USA).
(§2) Vehicle controls were treated in parallel with hepatocyte culture medium. […] (2) After the CYP induction treatment, the cells were used for a cell viability assay. […] The absorbance of formazan, which is proportional to the number of viable cells, was measured spectrophotometrically using the CellTiter 96 AQueous ONE Solution Cell Proliferation Assay. […] (3) Total RNA was isolated from the treated cells using the RNeasy mini kit (Qiagen, Valencia, CA, USA) and treated with RNase-free DNase (Qiagen) following the manufacturer's protocols. The concentration of RNA was determined using a Qubit Fluorometer with a Qubit RNA HS assay kit (Invitrogen). cDNA was synthesized from up to 1 μg of the total RNA harvested from the cells using a QuantiTect RT kit (Qiagen). Analysis of gene expression by qPCR was performed using the LightCycler 480 System (Roche Diagnostics Corporation, Indianapolis, IN, USA).

[2] = tested on: CYP2B6 mRNA; test: CYP induction (mRNA) in fresh human hepatocytes
Description: as §1, §2

[3] = target: T1, UbE2T (Homo sapiens, UniProt Q9NPD8); test: ITC, Flag-UbE2T; type: binding; set-up: host or cells: HEK293T
T1 sequence (Q9NPD8 1-197): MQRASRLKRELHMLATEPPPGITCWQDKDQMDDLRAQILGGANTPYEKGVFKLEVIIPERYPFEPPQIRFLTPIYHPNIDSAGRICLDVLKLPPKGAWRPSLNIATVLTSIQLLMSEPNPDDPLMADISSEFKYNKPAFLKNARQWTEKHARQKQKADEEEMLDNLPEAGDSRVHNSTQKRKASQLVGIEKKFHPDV
Description: Purification of Flag-tagged DDX5 (Flag-DDX5), USP2a (Flag-USP2), UbE2T (Flag-(bE2T) and topoisomerase 1 (Top1) (Flag-Top1) proteins: Flag-DDX5, Flag-USP2, Flag-UbE2T and Flag-Topl proteins were purified from the protein expression vector-transfected HEK293T cells by using the FLAG® M Purification Kit for mammalian expression systems (CELLMM2-IKT, Sigma). Briefly, sub-confluent populations of HEK293T cells were transfected with expression vectors for Flag-DDX5, Flag-USP2, Flag-UbE2T and Flag-Top1 (OriGene) using Lipofectamine 2000 (Invitrogen) as per the manufacturer's instructions. After 72h of transfection, cells were lysed in Cell Lytic M lysis reagent (Sigma Cat #C2978) containing a protease inhibitor cocktail. […]
Replacement of the Tris-HCl buffer with the PBS buffer for purified proteins for drug-protein binding analyses using isothermal titration calorimetry (ITC): After the purified proteins were eluted from the agarose resin with 3×flag peptide, the same purified protein samples from different batches were combined. […] The PBS-resuspended protein samples were recovered from the reservoir and the protein concentrations were determined using the nano-drop reader (Bio-Rad) and BCA Protein Assay (Thermo/Pierce) for double-making sure the concentration. […]

SMILES: CCC1(O)C(=O)OCc2c1cc1n(c2=O)Cc2cc3cc4c(cc3nc2-1)OCO4 (stereo not shown) [FL118]
- % of OME-treated Cells ([1]; donor 1, 0.01 μM): 0.15%
- induction of CYP1A2 mRNA ([1]; donor 1, 0.01 μM): < 2 fold
- % of OME-treated Cells ([1]; donor 1, 0.1 μM): 1.1%
- induction of CYP1A2 mRNA ([1]; donor 1, 0.1 μM): 2.0 fold
- % of OME-treated Cells ([1]; donor 1, 1 μM): 2.6%
- induction of CYP1A2 mRNA ([1]; donor 1, 1 μM): 3.4 fold
- % of OME-treated Cells ([1]; donor 2, 0.001 μM): 0.88%
- induction of CYP1A2 mRNA ([1]; donor 2, 0.001 μM): 2.3 fold
- % of OME-treated Cells ([1]; donor 2, 0.005 μM): 1.0%
- induction of CYP1A2 mRNA ([1]; donor 2, 0.005 μM): 2.5 fold
- % of OME-treated Cells ([1]; donor 2, 0.01 μM): 2.6%
- induction of CYP1A2 mRNA ([1]; donor 2, 0.01 μM): 4.9 fold
- % of OME-treated Cells ([1]; donor 3, 0.025 μM): 1.6%
- induction of CYP1A2 mRNA ([1]; donor 3, 0.025 μM): 2.0 fold
- % of OME-treated Cells ([1]; donor 3, 0.05 μM): 1.6%
- induction of CYP1A2 mRNA ([1]; donor 3, 0.05 μM): 2.1 fold
- % of PB-treated Cells ([2]; Donor 1, 0.01 μM, negative values treated as zero): 0%
- % of PB-treated Cells ([2]; Donor 1, 0.1 μM, negative values treated as zero): 0%
- % of PB-treated Cells ([2]; Donor 1, 1 μM, negative values treated as zero): 0%
- % of PB-treated Cells ([2]; Donor 3, 0.025 μM, negative values treated as zero): 0%
- % of PB-treated Cells ([2]; Donor 3, 0.05 μM, negative values treated as zero): 0%
- induction of CYP2B6 mRNA ([2]; donor 1, 0.01, 0.1, 1 μM): did not increase CYP2B6 mRNA
- % of PB-treated Cells ([2]; donor 2, 0.001 μM): 0.70%
- % of PB-treated Cells ([2]; donor 2, 0.005 μM): 0.43%
- % of PB-treated Cells ([2]; donor 2, 0.01 μM): 0.11%
- induction of CYP2B6 mRNA ([2]; donor 2, 0.001, 0.005, 0.01 μM): did not increase CYP2B6 mRNA
- induction of CYP2B6 mRNA ([2]; donor 3, 0.025, 0.05 μM): did not increase CYP2B6 and CYP3A4 mRNA
- Kd [3]: 160 nM
